{"source": "patent US9199962B2", "about": "“Substituted azaheterocycles for the treatment of cancer” (Merck Patent GmbH, priority 2011, dated 2015)", "data": [{"molecular_target": "T1, GST-FAK (N-terminal GST fusion with truncated human FAK (376-1052 (end) amino acids)) (Homo sapiens, UniProt Q05397)", "T1 construct": "truncated human FAK (376-1052 (end) amino acids)", "T1 sequence (Q05397 376-1052)": "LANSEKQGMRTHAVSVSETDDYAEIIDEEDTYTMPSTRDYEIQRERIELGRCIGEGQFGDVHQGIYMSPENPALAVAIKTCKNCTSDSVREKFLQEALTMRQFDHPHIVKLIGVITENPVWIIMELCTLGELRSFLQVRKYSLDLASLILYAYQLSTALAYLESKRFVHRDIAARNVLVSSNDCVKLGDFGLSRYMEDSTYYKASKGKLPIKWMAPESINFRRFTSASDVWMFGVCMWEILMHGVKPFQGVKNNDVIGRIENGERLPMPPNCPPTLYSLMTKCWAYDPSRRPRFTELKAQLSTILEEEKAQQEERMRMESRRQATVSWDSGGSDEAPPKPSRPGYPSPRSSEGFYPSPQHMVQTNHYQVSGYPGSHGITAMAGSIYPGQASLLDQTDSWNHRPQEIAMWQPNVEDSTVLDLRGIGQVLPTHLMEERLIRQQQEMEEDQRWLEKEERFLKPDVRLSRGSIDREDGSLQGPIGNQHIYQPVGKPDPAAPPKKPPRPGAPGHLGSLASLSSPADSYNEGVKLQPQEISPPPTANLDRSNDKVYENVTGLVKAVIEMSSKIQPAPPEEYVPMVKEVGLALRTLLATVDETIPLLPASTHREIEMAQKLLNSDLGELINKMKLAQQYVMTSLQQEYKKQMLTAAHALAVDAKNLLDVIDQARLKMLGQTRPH", "test": "Biochemical enzyme assay for FAK activity (Caliper LC3000 mobility shift)", "conditions": "Table 1; 100 uM ATP; read-out: FAK IC50", "method": "1. Biochemical Enzyme Assays for FAK Activity\nThe FAK assays described here are performed on two Caliper Life Sciences systems, the LC3000 and the EZ Reader II. These provide data on enzyme activity via measurement of the relative amounts of phosphorylated or unphosphorylated fluorescently labelled substrate peptide at the end of an enzymatic reaction. These different states of peptide are resolved by applying a potential difference across the sample. The presence of the charged phosphate group on the product (as opposed to the substrate) causes different peptide mobility between the two peptides. This is visualized by excitation of the fluorescent label on the substrate and product peptides and represented as peaks within the analysis software.\nIn order to measure inhibitor activity of FAK, inhibitors in the Caliper Life Sciences LC3000, a TTP Mosquito liquid handling instrument is used to place 0.25 ul of the appropriate concentration of inhibitor in 100% DMSO (for a dose response curve calculation) into each well of a 384-well plate. To this reaction components are added to a final volume of 25 ul: • 0.067 ng/ul GST-FAK (N-terminal GST fusion with truncated human FAK (376-1052 (end) amino acids)) • 100 uM ATP • 1 mM DTT • 1 mM MgCl2 • 1 uM substrate peptide (sequence FITC-KGWMEDYDYVHLQGKK-(CONH2)SEQ ID NO: 1)) • 1 mM FERM peptide (sequence NH2-GATQSFIIR-COOH (SEQ ID NO: 2)) • 100 mM HEPES pH 7.5 • 0.015% Brij-35\nThe reaction is incubated for 90 min at 25 C, and then stopped by the addition of 70 ul of Stop buffer (100 mM HEPES pH 7.5, 0.015% Brij-35, 10 mM EDTA).\nThe plate is read on a Caliper LC 3000 in an Off-Chip mobility shift assay format, using the following parameters for a 12-sipper chip: screening pressure—1.9 psi, upstream voltage—3000, downstream voltage—700. These conditions cause unphosphorylated substrate and phosphorylated product peptide to resolve as separate peaks allowing direct measurement of percentage of conversion of substrate to product. The percent conversion can be plotted against concentration of inhibitor to produce a sigmoid dose response curve, from which an IC50 can be calculated using XLFit for Microsoft Excel.", "units": {"IC50": "µM"}, "values": [{"compound": "COc1cncc(-c2nccc(NCc3ccc(OC)c(F)c3F)n2)c1", "note": "[Compound 1, (2,3-Difluoro-4-methoxy-benzyl)-[2-(5-methoxy-pyridin-3-yl)-pyrimidin-4-yl]-amine]", "IC50": "1 to 10"}, {"compound": "COc1cncc(-c2nccc(NCc3ccc(Oc4ccc(F)cc4)cc3)n2)c1", "note": "[Compound 2, [4-(4-Fluoro-phenoxy)-benzyl]-[2-(5-methoxy-pyridin-3-yl)-pyrimidin-4-yl]-amine]", "IC50": "> 10"}, {"compound": "COc1cncc(-c2nccc(NCc3cccc(Oc4cnccn4)c3)n2)c1", "note": "[Compound 3, [2-(5-Methoxy-pyridin-3-yl)-pyrimidin-4-yl]-[3-(pyrazin-2-yloxy)-benzyl]-amine]", "IC50": "> 10"}, {"compound": "COc1cncc(-c2nccc(NCc3ccc(N4CCOCC4)cc3)n2)c1", "note": "[Compound 4, [2-(5-Methoxy-pyridin-3-yl)-pyrimidin-4-yl]-(4-morpholin-4-yl-benzyl)-amine]", "IC50": "> 10"}, {"compound": "COc1cncc(-c2nccc(NCc3cccc(-n4cccn4)c3)n2)c1", "note": "[Compound 5, [2-(5-Methoxy-pyridin-3-yl)-pyrimidin-4-yl]-(3-pyrazol-1-yl-benzyl)-amine]", "IC50": "1 to 10"}, {"compound": "COc1cncc(-c2nccc(NCc3ccc4c(c3)OCCO4)n2)c1", "note": "[Compound 6, (2,3-Dihydro-benzo[1,4]dioxin-6-ylmethyl)-[2-(5-methoxy-pyridin-3-yl)-pyrimidin-4-yl]-amine]", "IC50": "> 10"}, {"compound": "Fc1ccc(Oc2ccc(CNc3ccnc(-c4cncc(F)c4)n3)cc2)cc1", "note": "[Compound 7, [4-(4-Fluoro-phenoxy)-benzyl]-[2-(5-fluoro-pyridin-3-yl)-pyrimidin-4-yl]-amine]", "IC50": "> 10"}, {"compound": "CC1(C)Cc2cccc(CNc3ccnc(-c4cncc(F)c4)n3)c2O1", "note": "[Compound 8, (2,2-Dimethyl-2,3-dihydro-benzofuran-7-ylmethyl)-[2-(5-fluoro-pyridin-3-yl)-pyrimidin-4-yl]-amine]", "IC50": "> 10"}, {"compound": "Fc1cncc(-c2nccc(NCc3cccc(Oc4cnccn4)c3)n2)c1", "note": "[Compound 9, [2-(5-Fluoro-pyridin-3-yl)-pyrimidin-4-yl]-[3-(pyrazin-2-yloxy)-benzyl]-amine]", "IC50": "> 10"}, {"compound": "Fc1cncc(-c2nccc(NCc3ccc(N4CCOCC4)cc3)n2)c1", "note": "[Compound 10, [2-(5-Fluoro-pyridin-3-yl)-pyrimidin-4-yl]-(4-morpholin-4-yl-benzyl)-amine]", "IC50": "> 10"}, {"compound": "Fc1cncc(-c2nccc(NCc3cccc(-n4cccn4)c3)n2)c1", "note": "[Compound 11, [2-(5-Fluoro-pyridin-3-yl)-pyrimidin-4-yl]-(3-pyrazol-1-yl-benzyl)-amine]", "IC50": "> 10"}, {"compound": "Fc1cncc(-c2nccc(NCc3ccc4c(c3)OCCO4)n2)c1", "note": "[Compound 12, (2,3-Dihydro-benzo[1,4]dioxin-6-ylmethyl)-[2-(5-fluoro-pyridin-3-yl)-pyrimidin-4-yl]-amine]", "IC50": "> 10"}, {"compound": "O=C(c1cncc(-c2nccc(NCc3ccc(Oc4ccc(F)cc4)cc3)n2)c1)N1CCOCC1", "note": "[Compound 13, (5-{4-[4-(4-Fluoro-phenoxy)-benzylamino]-pyrimidin-2-yl}-pyridin-3-yl)-morpholin-4-yl-methanone]", "IC50": "> 10"}, {"compound": "O=C(c1cncc(-c2nccc(NCc3ccc(N4CCOCC4)cc3)n2)c1)N1CCOCC1", "note": "[Compound 14, Morpholin-4-yl-{5-[4-(4-morpholin-4-yl-benzylamino)-pyrimidin-2-yl]-pyridin-3-yl}-methanone]", "IC50": "> 10"}, {"compound": "O=C(c1cncc(-c2nccc(NCc3ccc4c(c3)OCCO4)n2)c1)N1CCOCC1", "note": "[Compound 15, (5-{4-[(2,3-Dihydro-benzo[1,4]dioxin-6-ylmethyl)-amino]-pyrimidin-2-yl}-pyridin-3-yl)-morpholin-4-yl-methanone]", "IC50": "> 10"}, {"compound": "COc1cncc(-c2nccc(NCc3ccc(Cl)cc3F)n2)c1", "note": "[Compound 16, (4-Chloro-2-fluoro-benzyl)-[2-(5-methoxy-pyridin-3-yl)-pyrimidin-4-yl]-amine]", "IC50": "0.1 to 1"}, {"compound": "COc1cncc(-c2nccc(NCc3cccc4c3OC(C)(C)C4)n2)c1", "note": "[Compound 17, (2,2-Dimethyl-2,3-dihydro-benzofuran-7-ylmethyl)-[2-(5-methoxy-pyridin-3-yl)-pyrimidin-4-yl]-amine]", "IC50": "> 10"}, {"compound": "CC1(C)Cc2cccc(CNc3ccnc(-c4cncc(Cl)c4)n3)c2O1", "note": "[Compound 18, [2-(5-Chloro-pyridin-3-yl)-pyrimidin-4-yl]-(2,2-dimethyl-2,3-dihydro-benzofuran-7-ylmethyl)-amine]", "IC50": "> 10"}, {"compound": "Clc1cncc(-c2nccc(NCc3cccc(Oc4cnccn4)c3)n2)c1", "note": "[Compound 19, [2-(5-Chloro-pyridin-3-yl)-pyrimidin-4-yl]-[3-(pyrazin-2-yloxy)-benzyl]-amine]", "IC50": "> 10"}, {"compound": "Clc1cncc(-c2nccc(NCc3ccc(N4CCOCC4)cc3)n2)c1", "note": "[Compound 20, [2-(5-Chloro-pyridin-3-yl)-pyrimidin-4-yl]-(4-morpholin-4-yl-benzyl)-amine]", "IC50": "> 10"}, {"compound": "COc1ccc(CNc2ccnc(-c3cncc(F)c3)n2)c(F)c1F", "note": "[Compound 21, (2,3-Difluoro-4-methoxy-benzyl)-[2-(5-fluoro-pyridin-3-yl)-pyrimidin-4-yl]-amine]", "IC50": "1 to 10"}, {"compound": "O=C(c1cncc(-c2nccc(NCc3ccc(Cl)cc3F)n2)c1)N1CCOCC1", "note": "[Compound 22, {5-[4-(4-Chloro-2-fluoro-benzylamino)-pyrimidin-2-yl]-pyridin-3-yl}-morpholin-4-yl-methanone]", "IC50": "> 10"}, {"compound": "O=C(c1cncc(-c2nccc(NCc3cccc(Oc4cnccn4)c3)n2)c1)N1CCOCC1", "note": "[Compound 23, Morpholin-4-yl-(5-{4-[3-(pyrazin-2-yloxy)-benzylamino]-pyrimidin-2-yl}-pyridin-3-yl)-methanone]", "IC50": "> 10"}, {"compound": "COc1ccc(CNc2ccnc(-c3cncc(C(F)(F)F)c3)n2)c(F)c1F", "note": "[Compound 24, (2,3-Difluoro-4-methoxy-benzyl)-[2-(5-trifluoromethyl-pyridin-3-yl)-pyrimidin-4-yl]-amine]", "IC50": "1 to 10"}, {"compound": "Fc1ccc(Oc2ccc(CNc3ccnc(-c4cncc(C(F)(F)F)c4)n3)cc2)cc1", "note": "[Compound 25, [4-(4-Fluoro-phenoxy)-benzyl]-[2-(5-trifluoromethyl-pyridin-3-yl)-pyrimidin-4-yl]-amine]", "IC50": "> 10"}, {"compound": "CC1(C)Cc2cccc(CNc3ccnc(-c4cncc(C(F)(F)F)c4)n3)c2O1", "note": "[Compound 26, (2,2-Dimethyl-2,3-dihydro-benzofuran-7-ylmethyl)-[2-(5-trifluoromethyl-pyridin-3-yl)-pyrimidin-4-yl]-amine]", "IC50": "> 10"}, {"compound": "FC(F)(F)c1cncc(-c2nccc(NCc3cccc(Oc4cnccn4)c3)n2)c1", "note": "[Compound 27, [3-(Pyrazin-2-yloxy)-benzyl]-[2-(5-trifluoromethyl-pyridin-3-yl)-pyrimidin-4-yl]-amine]", "IC50": "> 10"}, {"compound": "FC(F)(F)c1cncc(-c2nccc(NCc3ccc(N4CCOCC4)cc3)n2)c1", "note": "[Compound 28, (4-Morpholin-4-yl-benzyl)-[2-(5-trifluoromethyl-pyridin-3-yl)-pyrimidin-4-yl]-amine]", "IC50": "> 10"}, {"compound": "FC(F)(F)c1cncc(-c2nccc(NCc3cccc(-n4cccn4)c3)n2)c1", "note": "[Compound 29, (3-Pyrazol-1-yl-benzyl)-[2-(5-trifluoromethyl-pyridin-3-yl)-pyrimidin-4-yl]-amine]", "IC50": "1 to 10"}, {"compound": "FC(F)(F)c1cncc(-c2nccc(NCc3ccc4c(c3)OCCO4)n2)c1", "note": "[Compound 30, (2,3-Dihydro-benzo[1,4]dioxin-6-ylmethyl)-[2-(5-trifluoromethyl-pyridin-3-yl)-pyrimidin-4-yl]-amine]", "IC50": "> 10"}, {"compound": "Fc1ccc(Oc2ccc(CNc3ccnc(-c4cncc(Cl)c4)n3)cc2)cc1", "note": "[Compound 31, [2-(5-Chloro-pyridin-3-yl)-pyrimidin-4-yl]-[4-(4-fluoro-phenoxy)-benzyl]-amine]", "IC50": "> 10"}, {"compound": "Fc1cc(Cl)ccc1CNc1ccnc(-c2cncc(Cl)c2)n1", "note": "[Compound 32, (4-Chloro-2-fluoro-benzyl)-[2-(5-chloro-pyridin-3-yl)-pyrimidin-4-yl]-amine]", "IC50": "< 0.1"}, {"compound": "Fc1cncc(-c2nccc(NCc3ccc(Cl)cc3F)n2)c1", "note": "[Compound 33, (4-Chloro-2-fluoro-benzyl)-[2-(5-fluoro-pyridin-3-yl)-pyrimidin-4-yl]-amine]", "IC50": "< 0.1"}, {"compound": "O=C(c1cncc(-c2nccc(NCc3cccc(-n4cccn4)c3)n2)c1)N1CCOCC1", "note": "[Compound 34, Morpholin-4-yl-{5-[4-(3-pyrazol-1-yl-benzylamino)-pyrimidin-2-yl]-pyridin-3-yl}-methanone]", "IC50": "> 10"}, {"compound": "Fc1cc(Cl)ccc1CNc1ccnc(-c2cncc(C(F)(F)F)c2)n1", "note": "[Compound 35, (4-Chloro-2-fluoro-benzyl)-[2-(5-trifluoromethyl-pyridin-3-yl)-pyrimidin-4-yl]-amine]", "IC50": "< 0.1"}]}]}
